In patent US20230233584A1, “EXTENDED RELEASE 5-HT RECEPTOR AGONISTS FOR NEUROLOGICAL CONDITIONS” (Diamond Therapeutics Inc., priority 2020, published 2023):

Experiments:
[1] = Minipump infusion of psilocybin over 12 days: plasma/blood exposure; type: in vivo, rats; settings: psilocybin minipump, days 4-12, rats
Procedure: A dose of psilocybin, which is free from perceptual and behavioral side effects, was dosed in rats (N=24) continuously over a period of 12 days using an Alzet minipump implanted in rats of approximately 380-390 g body weight. The pump was primed to deliver psilocybin at 5 mg/kg/day pump concentration. The target plasma concentration was 10 ng/ml psilocin with actual plasma concentration 9.3+1.3 ng/ml over the 12 day study period.
Blood was collected from rats on days 4, 8 and 12 to measure levels of psilocybin and psilocin in Group B rats. Blood was collected via saphenous bleed at a standard timepoint which will not interfere with 5-choice testing. Psilocin blood levels were in the range of 8-10 ng/ml over days 4-12, while psilocybin blood levels were in the range of 2-5 ng/ml over days 4-12 (FIG. 7A), corresponding to 10 ng/mL psilocin. […] The present observations recorded for psilocybin/psilocin are occurring at exposure levels of psilocin ˜10 ng/ml (e.g., FIG. 5), likely resulting in a low level of CNS 5-HT2A receptor occupancy, and which is insufficient to elicit cardinal signs of 5-HT2A receptor activation such as WDS/BMC in rats (e.g., FIG. 1B).

[2] = Psilocybin and psilocin plasma pharmacokinetics after s.c. psilocybin; type: in vivo, rats; settings: rats; for AUC0-tlast, Mean / Cmax, Mean / Cmax/Dose, Mean / tmax, Mean / AUC0-inf, Mean / AUC0-inf/Dose, Mean / Apparent t1/2, Mean / MRT0-inf, Mean: psilocybin in plasma
Procedure: Psilocybin doses of 0.05, 0.1, 1, 10 mg/kg were used to evaluate psilocybin and psilocin PK in rats. For the doses of psilocybin that positively effect behaviors in the low performers in the PR and 5CSRTT, e.g., 0.05-0.1 mg/kg, the corresponding Cm. of psilocin was ˜7±2 ng/ml at 30 minutes for 0.05 mg/kg, and at a dose of 0.1 mg/kg, the Cm. of psilocin was determined to be ˜12±3 ng/ml at 30 minutes (FIG. 5).
Details of the plasma concentration studies are shown in Tables 1-8 (psilocybin) and 9-16 (psilocin). Values in italics are below the lower level of quantitation (BLQ, <1 ng/mL) but were included in calculations. Values in bold and underlined are considered to be outliers and were omitted from calculations. Measured dosing solution concentrations were 0.0460, 0.0967, 0.948 and 9.65 mg/mL for 0.05, 0.1, 1 and 10 […].

Long Evans rats = assay: 5-choice serial reaction time task (5CSRTT), acute dosing, standard conditions; type: in vivo; settings: for pro-cognitive effect measured as % hit: p=0.05
Procedure: General: Experiments were conducted to test psilocybin doses in the range of 0.01-0.2 mg/kg psilocybin administered S.C. across progressive ratio (PR) and 5-choice serial reaction time task (5CSRTT) to examine the effect of psilocybin on endophenotypes of motivation and attention. In each study, a population of out-bred Long Evans rats was first tested as a group for response to the PR and 5CSRTT. Each group was then divided into subgroups by tertiles according to performance, and then exposed to various dose levels immediately prior to re-testing at various psilocybin dose levels.
The 5CSRTT involves evaluating test subject response to a brief visual stimulus (Higgins, Guy & Silenieks, Leonardo. (2017). Rodent Test of Attention and Impulsivity: The 5-Choice Serial Reaction Time Task: The 5-Choice Serial Reaction Time Task. 10.1002/cpph.27). Animals are trained to make a nose-poke response to a stimulus location in order to collect a food reward. The task allows the experimenter to measure animal performance in multiple domains including: • Attention • Impulsivity • Perseveration • Speed of response
A strength of the test is its flexible configuration to challenge test subjects: • Standard test conditions (0.75 s stimulus duration (SD), 5 s inter-trial interval (ITI), 100 trials) • Multiple short stimulus duration (mSD) (0.03-1 s SD) • Fixed long ITI (5 s vs. 10 s ITI) • Multiple ultrashort ITI (2-5 s ITI) • Extended 250 trials
Asterisk (*) indicates statistical significance vs. vehicle. (FIG. 3A).
When this population is segmented into tertiles according to performance based on accuracy (% correct, calculated as # correct/(# correct+# incorrect)*100), the lowest performing tertile (N=8) are considered to be low attentive and potentially representative of a low attentive endophenotype of depression (FIG. 6A). Low attentive rats also score poorly on % hit (FIG. 6B) and have a slower response speed (FIG. 6D). […] Asterisk (*) indicates statistical significance vs. vehicle.

[3] = 0.05 mg/kg S.C., 24 rats, standard conditions
[4] = 0.05-0.1 mg/kg S.C., standard conditions

In the case of `CN(C)CCc1c[nH]c2cccc(OP(=O)(O)O)c12` [psilocybin, 4-phosphoryloxy-N,N-dimethyltryptamine], the psilocybin blood levels [1] is reported as 2 to 5 ng/mL, the “Plasma concentration of psilocybin, Mean” value ([2]; psilocybin 0.05 mg/kg s.c., 0.25 h) is reported as 6.20 ng/mL and the “Plasma concentration of psilocybin, Mean” value ([2]; psilocybin 0.05 mg/kg s.c., 0.5 h) is reported as 12.5 ng/mL. For the same molecule, the “Plasma concentration of psilocybin, Mean” value ([2]; psilocybin 0.05 mg/kg s.c., 0.75 h) was 1.07 ng/mL, the “Plasma concentration of psilocybin, Mean” value ([2]; psilocybin 0.05 mg/kg s.c., 1 h) was 19.2 ng/mL and the “Plasma concentration of psilocybin, Mean” value ([2]; psilocybin 0.05 mg/kg s.c., 2 h) was 0.594 ng/mL. For the same molecule, the “Plasma concentration of psilocybin, Mean” value ([2]; psilocybin 0.05 mg/kg s.c., 4 h) was 1.95 ng/mL, the “Plasma concentration of psilocybin, Mean” value ([2]; psilocybin 0.05 mg/kg s.c., 6 h) was 2.12 ng/mL and the “Plasma concentration of psilocybin, Mean” value ([2]; psilocybin 0.1 mg/kg s.c., 0.25 h) was 21.7 ng/mL. The “Plasma concentration of psilocybin, Mean” value ([2]; psilocybin 0.1 mg/kg s.c., 0.5 h) was 28.9 ng/mL, the “Plasma concentration of psilocybin, Mean” value ([2]; psilocybin 0.1 mg/kg s.c., 0.75 h) was 2.96 ng/mL and the “Plasma concentration of psilocybin, Mean” value ([2]; psilocybin 0.1 mg/kg s.c., 1 h) was 2.19 ng/mL. The “Plasma concentration of psilocybin, Mean” value ([2]; psilocybin 0.1 mg/kg s.c., 2 h) was 1.76 ng/mL, the “Plasma concentration of psilocybin, Mean” value ([2]; psilocybin 0.1 mg/kg s.c., 4 h) was 2.55 ng/mL and the “Plasma concentration of psilocybin, Mean” value ([2]; psilocybin 0.1 mg/kg s.c., 6 h) was 0.921 ng/mL. The “Plasma concentration of psilocybin, Mean” value ([2]; psilocybin 1.0 mg/kg s.c., 0.25 h) was 75.2 ng/mL, the “Plasma concentration of psilocybin, Mean” value ([2]; psilocybin 1.0 mg/kg s.c., 0.5 h) was 47.3 ng/mL and the “Plasma concentration of psilocybin, Mean” value ([2]; psilocybin 1.0 mg/kg s.c., 0.75 h) was 35.8 ng/mL. For the same molecule, the “Plasma concentration of psilocybin, Mean” value ([2]; psilocybin 1.0 mg/kg s.c., 1 h) was 35.1 ng/mL, the “Plasma concentration of psilocybin, Mean” value ([2]; psilocybin 1.0 mg/kg s.c., 2 h) was 2.19 ng/mL and the “Plasma concentration of psilocybin, Mean” value ([2]; psilocybin 1.0 mg/kg s.c., 4 h) was 1.12 ng/mL. For the same molecule, the “Plasma concentration of psilocybin, Mean” value ([2]; psilocybin 1.0 mg/kg s.c., 6 h) was 0.929 ng/mL, the “Plasma concentration of psilocybin, Mean” value ([2]; psilocybin 10 mg/kg s.c., 0.25 h) was 1030 ng/mL and the “Plasma concentration of psilocybin, Mean” value ([2]; psilocybin 10 mg/kg s.c., 0.5 h) was 1544 ng/mL. The “Plasma concentration of psilocybin, Mean” value ([2]; psilocybin 10 mg/kg s.c., 0.75 h) was 344 ng/mL, the “Plasma concentration of psilocybin, Mean” value ([2]; psilocybin 10 mg/kg s.c., 1 h) was 269 ng/mL and the “Plasma concentration of psilocybin, Mean” value ([2]; psilocybin 10 mg/kg s.c., 2 h) was 101 ng/mL. For the same molecule, the “Plasma concentration of psilocybin, Mean” value ([2]; psilocybin 10 mg/kg s.c., 4 h) was 1.80 ng/mL, the “Plasma concentration of psilocybin, Mean” value ([2]; psilocybin 10 mg/kg s.c., 6 h) was 1.32 ng/mL and the “AUC0-tlast, Mean” value ([2]; psilocybin 0.05 mg/kg s.c.) was 10.7 ng·h/mL. The “Cmax, Mean” value ([2]; psilocybin 0.05 mg/kg s.c.) was 18.9 ng/mL, the “Cmax/Dose, Mean” value ([2]; psilocybin 0.05 mg/kg s.c.) was 377 kg·ng/mL/mg and the “tmax, Mean” value ([2]; psilocybin 0.05 mg/kg s.c.) was 36 min. The “AUC0-tlast, Mean” value ([2]; psilocybin 0.1 mg/kg s.c.) was 11.4 ng·h/mL, the “Cmax, Mean” value ([2]; psilocybin 0.1 mg/kg s.c.) was 31.4 ng/mL and the “Cmax/Dose, Mean” value ([2]; psilocybin 0.1 mg/kg s.c.) was 314 kg·ng/mL/mg. The “tmax, Mean” value ([2]; psilocybin 0.1 mg/kg s.c.) was 19.3 min, the “AUC0-inf, Mean” value ([2]; psilocybin 1.0 mg/kg s.c.) was 47.9 ng·h/mL and the “AUC0-inf/Dose, Mean” value ([2]; psilocybin 1.0 mg/kg s.c.) was 47.9 kg·ng·h/mL/mg. For the same molecule, the “AUC0-tlast, Mean” value ([2]; psilocybin 1.0 mg/kg s.c.) was 53.1 ng·h/mL, the “Apparent t1/2, Mean” value ([2]; psilocybin 1.0 mg/kg s.c.) was 26.7 min and the “Cmax, Mean” value ([2]; psilocybin 1.0 mg/kg s.c.) was 78.3 ng/mL. The “Cmax/Dose, Mean” value ([2]; psilocybin 1.0 mg/kg s.c.) was 78.3 kg·ng/mL/mg, the “MRT0-inf, Mean” value ([2]; psilocybin 1.0 mg/kg s.c.) was 44.8 min and the “tmax, Mean” value ([2]; psilocybin 1.0 mg/kg s.c.) was 21.4 min. For the same molecule, the “AUC0-inf, Mean” value ([2]; psilocybin 10 mg/kg s.c.) was 2156 ng·h/mL, the “AUC0-inf/Dose, Mean” value ([2]; psilocybin 10 mg/kg s.c.) was 216 kg·ng·h/mL/mg and the “AUC0-tlast, Mean” value ([2]; psilocybin 10 mg/kg s.c.) was 1707 ng·h/mL. For the same molecule, the “Apparent t1/2, Mean” value ([2]; psilocybin 10 mg/kg s.c.) was 34 min, the “Cmax, Mean” value ([2]; psilocybin 10 mg/kg s.c.) was 3595 ng/mL and the “Cmax/Dose, Mean” value ([2]; psilocybin 10 mg/kg s.c.) was 359 kg·ng/mL/mg. The “MRT0-inf, Mean” value ([2]; psilocybin 10 mg/kg s.c.) was 43 min, the “tmax, Mean” value ([2]; psilocybin 10 mg/kg s.c.) was 30 min and the “procognitive effect measured as % correct” value (Long Evans rats; [3]) was “slight non-significant increase”. For the same molecule, the “pro-cognitive effect measured as % hit” value (Long Evans rats; [3]) was “increased”, the “pro-cognitive effect measured as % hit” value (Long Evans rats; 0.05 mg/kg and 0.1 mg/kg S.C., low performers) was “increased” and the response speed (Long Evans rats; 0.05 mg/kg, low attentive cohort compared with vehicle) was “increased response speed”. The “performance: response speed, number of trials completed” value (Long Evans rats; [4]) was “no effect on response speed, or number of trials completed”, the “premature or perseverative responses” value (Long Evans rats; [4]) was “no effect on premature or perseverative responses” and the “pro-cognitive effect measured as % correct” value (Long Evans rats; 0.05 and 0.1 mg/kg S.C., low performers) was “slight non-significant increase”. The “effect on accuracy (% correct and % hit)” value (Long Evans rats; 0.05 and 0.1 mg/kg, low attentive subgroup (N=8) compared with vehicle) was “strongly evident” and the “detrimental effects on performance (motivation, motor control, attention, response speed)” value (Long Evans rats; low doses used in PR and 5CSRTT studies (0.025-0.2 mg/kg S.C.)) was “no detrimental effects”.
